We go through one compound from US20200223826A1, “Glucose-6-Phosphate Dehydrogenase (G6PD)-Modulating Agents And Methods Of Treating G6PD Deficiency” (The Board of Trustees of the Leland Stanford Junior …, priority 2017, published 2020).

The test system of assay [1] is human erythrocytes. As to the kind of experiment: Hemolysis of human erythrocytes under oxidative stressors. Format: cell-based. Here is the method:
(§1) De-identified blood samples were obtained from the Stanford Blood Center. Erythrocytes were collected by filtering the samples through a cellulose slurry to remove platelets and leukocytes and then washed with saline. G6PD activity was measured (Beutler E. Red cell metabolism: A manual of biochemical methods (3rd edition). Grune & Stratton (1984)). […] A 5% erythrocyte suspension was pre-incubated with 1-5 μM AG1 at 4° C. overnight, which was followed by treatment with (or without) either 1 mM chloroquine (CQ) or 1 mM diamide for 3-4 hours at 37° C. (for hemolysis assay with chloroquine, the mixture was incubated under light). Then centrifugation at 1,000 rpm for 5 minutes was followed. Hemoglobin release in the supernatant was monitored by measuring absorbance at 540 nm. […] After wash, the samples were lysed with 0.1% Triton X-100 (final concentration), and the florescence was analyzed with excitation/emission at 485/525 nm. GSH measurement was determined using a Cayman glutathione assay kit (Cayman Chemicals, 703002). […] The absorbance was read at 412 nm. For storage assay, a 5% erythrocyte suspension was stored at 4° C. with and without 1 μM AG1, and hemolysis and G6PD activity were monitored every week for 28 days to examine whether AG1 improves preservation of erythrocytes over time. Protein leakage was also examined by measuring the absorbance of the supernatant of samples at 280 nm. […]

In assay [2] the test system is lymphocytes carrying the Canton variant. As to the kind of experiment: Viability of lymphocytes. In kind it is cell-based, human. The note with it: treatment with AG1 for 24 hours. Here is the method: Cell viability was measured using a Cell-Counting Kit-8 (CCK-8, Dojindo), utilizing WST-8 [2-(2-methoxy-4-nitrophenyl)-3-(4-nitrophenyl)-5-(2,4-disulfophenyl)-2H-tetrazolium monosodium salt, according to the manufacturer's instructions. Cells were subjected to serum starvation for 48 hours before measurement. Cells in 100 μL of medium per well were treated with 10 μL of CCK-8 solution and incubated for 2 hours at 37° C. The absorbance was read at 450 nm. Viability of lymphocytes was measured by staining with a 0.4% solution of trypan blue in buffered isotonic salt solution (pH 7.2). The viability was calculated as the number of viable cells (non-stained by the dye) divided by the total number of cells within the grids on the hemacytometer. Cells were treated with 1 μM of the compound 24 hours before the measurement.

In the next assay the target is T1, Canton G6PD (Homo sapiens, UniProt P11413, R459L).
T1 construct: His (pET-28a) (N, cleaved yes); made in house; host or cells: E. coli C43 (DE3)
As to the kind of experiment: Native gel electrophoresis, dimerization. Here is the method: 200 ng of recombinant enzymes were incubated with the compound (varying in assays) for 10 minutes at room temperature. To prevent streaking and artifacts in native PAGE gel, the samples in a native state (no boiling of sample and no reducing agent in sample buffer) were electrophoresed by […]. Cross-linking assay was initiated by incubating 500 ng of recombinant enzymes in PBS with 0.1% of glutaraldehyde and different concentrations of NADP^+ (0, 10, 100, 1000 μM) or MgCl2 (0, 1, 10, 100 mM). The mixture was incubated for 10 minutes at room temperature, which was followed by the addition of 100 mM Tris (pH 8.0) at a final concentration to terminate the reaction. The samples were electrophoresed as described above.

Assay [3] concerns human erythrocytes. As to the kind of experiment: Erythrocyte refrigerated storage assay, hemolysis. In kind it is cell-based. Particulars: 672 h, read-out: reduction of hemolysis. Here is the method:
as §1

For assay [4], the system named is G6PD in zebrafish embryo lysates. As to the kind of experiment: G6PD activity in lysates of pooled zebrafish embryos. In kind it is in vivo. Particulars: lysates of pooled AG1-treated embryos. As to the method: Embryos were dechorinated with pronase at 24 hours post fertilization (hpf) and treated with 50 μg/ml of chloroquine and/or AG1 by directly adding the compounds to the well. For ROS measurements, embryos were incubated with compounds for 2 hours, and then the ROS detecting reagent (CM-H2DCFDA) was added at a final concentration of 500 ng/ml to the well for a total treatment time of 5 hours. One embryo was placed to each well of a black, opaque 96-well plate. The florescence was analyzed with excitation/emission at 485/525 nm. After ROS assays, embryos at about 32 hpf were pooled and lysed in buffer containing 50 mM Tris (pH 7.4), 150 mM NaCl, 1 mM EDTA, 0.1% NP-40, and protease inhibitor cocktail, which was followed by three cycles of freeze and thawing in liquid nitrogen. The lysate was centrifuged at 14,000 rpm at 4° C. for 15 minutes. Total protein concentration in the supernatants (total lysate) was determined by Bradford method. 50 μg of total lysate was loaded onto 10% SDS-PAGE gels and the protein level was examined by Western blot using anti-G6PD antibody (Abcam (G6PD: AB87230)). 10 μg of total lysate was used for enzymatic assay. 50 μg of the lysate was used to measure NADPH levels using a NADPH quantification kit (Biovision), according to the manufacturer's instructions.

A further assay has as its target T2, Kaiping (R463H) G6PD (Homo sapiens, UniProt P11413, R463H).
T2 construct: His (pET-28a) (N, cleaved yes); made in house; host or cells: E. coli C43 (DE3)
In words: G6PD variant enzyme activity. In kind it is biochemical. Here is the method: (§2) Enzyme activity was measured by monitoring NADPH production, which was coupled with diaphorase converting resazurin to fluorescent resorufin (excitation at 565 nm and emission at 590 nm); fluorescent signal was thus proportional to G6PD activity. Assays were performed at 25° C. and run for 5 minutes in buffer containing 50 mM Tris (pH 7.4), 0.5 mM EDTA, 3.3 mM MgCl2, 1 U/ml diaphorase, 0.1 mM resazurin. 10 ng of recombinant enzymes or 10 μg of cell lysates was used for the assay with 10 μM NADP^+ (Sigma) as cofactor and 100 μM G6P (Sigma) as substrate. Steady-state kinetic parameters were obtained by varying concentrations of NADP^+ (0-10 μM) with a constant concentration of G6P (100 μM) and similarly for G6P (0-100 μM) with a constant concentration of NADP^+ (10 μM) with 10 ng of recombinant enzymes. Data analysis was performed using GraphPad Prism software v.6 (GraphPad Software, La Jolla, Calif. USA). Kinetic parameters were obtained by fitting the data to the Michaelis-Menten equation.

The next assay deals with T3, A- (V68M, N126D) G6PD (Homo sapiens, UniProt P11413, N126D/V68M).
T3 construct: His (pET-28a) (N, cleaved yes); made in house; host or cells: E. coli C43 (DE3)
In words: G6PD variant enzyme activity. In kind it is biochemical. As to the method:
as §2

T2 sequence (P11413 whole entry R463H): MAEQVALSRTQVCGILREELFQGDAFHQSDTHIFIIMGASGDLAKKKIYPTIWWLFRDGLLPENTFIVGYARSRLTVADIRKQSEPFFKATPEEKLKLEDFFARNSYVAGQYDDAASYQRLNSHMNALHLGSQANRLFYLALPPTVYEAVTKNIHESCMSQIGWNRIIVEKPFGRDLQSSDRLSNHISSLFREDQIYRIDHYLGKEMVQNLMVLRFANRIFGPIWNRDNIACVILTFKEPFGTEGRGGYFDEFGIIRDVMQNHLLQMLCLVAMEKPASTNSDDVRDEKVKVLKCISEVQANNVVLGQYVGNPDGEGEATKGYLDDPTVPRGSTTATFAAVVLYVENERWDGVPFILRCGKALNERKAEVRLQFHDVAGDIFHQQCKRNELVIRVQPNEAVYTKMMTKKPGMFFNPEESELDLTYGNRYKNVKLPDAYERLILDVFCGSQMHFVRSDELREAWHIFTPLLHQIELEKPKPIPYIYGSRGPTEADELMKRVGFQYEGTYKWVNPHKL
T3 sequence (P11413 whole entry V68M/N126D): as the sequence (P11413 whole entry R463H) above, with V68M, N126D, H463R counted along it
T1 sequence (P11413 whole entry R459L): as the sequence (P11413 whole entry R463H) above, with R459L, H463R counted along it

Take `SCCNCCc1c[nH]c2ccccc12` [AG1, 2-[2-(1H-indol-3-yl)ethylamino]ethanethiol]: the chloroquine-induced hemolysis entry in the assay on human erythrocytes [1] (AG1 1 μM) is reported as “rescued”. For the same compound, in the assay with human erythrocytes [1] (AG1 5 μM, 5% erythrocyte suspension, 1 mM chloroquine or diamide), the extent of hemolysis result is on record as “reduces the extent of hemolysis”. The viability entry in assay [2] is reported as “improved”. Further, the “formation of active dimers” value at Canton G6PD is given as “promoted formation of active dimers”. Moreover, the reduction of hemolysis at 1 µM in the assay with human erythrocytes [3] was 12%. In assay [4], the G6PD activity result is “slight increase”. Further, the activation of variant entry at Kaiping (R463H) G6PD is “up to 2 fold”; on A- (V68M, N126D) G6PD it was “up to 2 fold”.
